From patent US20140221475A1, “PLATINUM(IV) COMPLEXES AND PHARMACEUTICAL COMPOSITION CONTAINING THE SAME” (UNITECH CO., LTD., priority 2011, published 2014)

Assays:
Type in all cases: cell-based
[1] = system: human leukemia cell (HL60); assay: Cell proliferation inhibition, MTS method, human leukemia cell HL60
Method: (§1) The test solution was prepared by dissolving the (compound 1) into the DMSO (dimethylsulfoxide) with the concentration of 8 mg/ml.
(§2) The test was implemented by using the human lung cancer cell (LU99), two kind of the human gastric cancer cell (KATO III, MKN-45), the human prostate cancer cell (DU145), the human malignant melanoma cell (G-361), the human bladder cancer cell (T24), two kind of the human lymphoma cell (U937, Jurkat E6.1) and the human leukemia cell (HL60) as the cancer cell.
(§3) These cells were suspended in the each culture medium that the serum of 10% was added, and were dispensed in 96-well plate. And then, these were cultured in 5% CO2 at 37 degrees centigrade during a night. The test solution was prepared in the culture medium to the various concentrations, and was dispensed into the plate that the cells were set preliminarily. And further, these were cultured in 5% CO2 at 37 degrees centigrade for three days.
(§4) The cell proliferation after the medicine addition was measured on the 3rd day from the 1st day after the medicine addition by the MTS method (Kit for cell proliferation test manufactured by Promega Company, Cell Titer 96 Aqueous One Solution Cell Proliferation Assay).
(§5) The inhibition rate (%) of the cell proliferation was obtained from the measured MTS value by the following formula.
(§6) Inhibition rate(%)=(1−MTS value of medicine addition group/MTS value of medicine non-addition group)×100
(§7) Because the value which was obtained by the above-mentioned formula represents the inhibition rate of the cell proliferation, the higher the numerical value is, the higher the medicine effect is. It is deemed that the one whose value is 50% or more has the medicine effect.

[2] = system: human gastric cancer cell (KATO III); assay: Cell proliferation inhibition, MTS method, human gastric cancer cell KATO III
Method: as §1, §2, §3, §4, §5, §6, §7
(§8) The (compound 2) was prepared as the test solution, and the inhibition rate of the cell proliferation was measured by the method similar to the embodiment 7.

[3] = system: human lymphoma cell (Jurkat E6.1); assay: Cell proliferation inhibition, MTS method, human lymphoma cell Jurkat E6.1
Method: as §1, §2, §3, §4, §5, §6, §7

[4] = system: human lymphoma cell (U937); assay: Cell proliferation inhibition, MTS method, human lymphoma cell U937
Method: as §1, §2, §3, §4, §5, §6, §7, §8

[5] = system: human bladder cancer cell (T24); assay: Cell proliferation inhibition, MTS method, human bladder cancer cell T24
Method: as §2, §3, §4, §5, §6
Because the value which was obtained by the above-mentioned formula represents the inhibition rate of the cell proliferation, the higher the numerical value is, the higher the medicine effect is. It is deemed that the one whose value is 50% or more has the medicine effect. […]

[6] = system: human prostate cancer cell (DU145); assay: Cell proliferation inhibition, MTS method, human prostate cancer cell DU145
Method: as §2, §3, §4, §5, §6, §7, §8

[7] = system: human malignant melanoma cell (G-361); assay: Cell proliferation inhibition, MTS method, human malignant melanoma cell G-361
Method: as §2, §3, §4, §5, §6, §7
(§9) The (compound 5) was prepared as the test solution, and the inhibition rate of the cell proliferation was measured by the method similar to the embodiment 7.
(§10) The (compound 6) was prepared as the test solution, and the inhibition rate of the cell proliferation was measured by the method similar to the embodiment 7.

[8] = system: human lung cancer cell (LU99); assay: Cell proliferation inhibition, MTS method, human lung cancer cell LU99
Method: as §2, §3, §4, §5, §6, §7, §9, §10

[9] = system: human gastric cancer cell (MKN-45); assay: Cell proliferation inhibition, MTS method, human gastric cancer cell MKN-45
Method: as §2, §3, §4, §5, §6, §7, §9, §10

SMILES | Inhibition rate of cell proliferation after 3 days from medicine addition ([1]; HL60, 5 μg/ml) | Inhibition rate of cell proliferation after 3 days from medicine addition ([1]; HL60, 10 μg/ml) | Inhibition rate of cell proliferation after 3 days from medicine addition ([2]; 5 μg/ml) | Inhibition rate of cell proliferation after 3 days from medicine addition ([2]; 10 μg/ml) | Inhibition rate of cell proliferation after 3 days from medicine addition ([2]; 20 μg/ml) | Inhibition rate of cell proliferation after 3 days from medicine addition ([4]; U937, 5 μg/ml) | Inhibition rate of cell proliferation after 3 days from medicine addition ([4]; U937, 10 μg/ml) | Inhibition rate of cell proliferation after 3 days from medicine addition ([4]; U937, 20 μg/ml) | Inhibition rate of cell proliferation after 3 days from medicine addition ([5]; T24, 5 μg/ml) | Inhibition rate of cell proliferation after 3 days from medicine addition ([5]; T24, 10 μg/ml) | Inhibition rate of cell proliferation after 3 days from medicine addition ([5]; T24, 20 μg/ml) | Inhibition rate of cell proliferation after 3 days from medicine addition ([7]; G-361, 5 μg/ml) | Inhibition rate of cell proliferation after 3 days from medicine addition ([7]; G-361, 10 μg/ml) | Inhibition rate of cell proliferation after 3 days from medicine addition ([7]; G-361, 20 μg/ml) | Inhibition rate of cell proliferation after 3 days from medicine addition ([8]; LU99, 5 μg/ml) | Inhibition rate of cell proliferation after 3 days from medicine addition ([8]; LU99, 10 μg/ml) | Inhibition rate of cell proliferation after 3 days from medicine addition ([8]; LU99, 20 μg/ml) | Inhibition rate of cell proliferation after 3 days from medicine addition ([9]; MKN-45, 5 μg/ml) | Inhibition rate of cell proliferation after 3 days from medicine addition ([9]; MKN-45, 10 μg/ml) | Inhibition rate of cell proliferation after 3 days from medicine addition ([9]; MKN-45, 20 μg/ml) | further results
NC1CCCC12CCCC2N.O=C1CC(=O)[O][Pt]([Cl])([Cl])[O]1 [Compound 1, dichloromalonato((1S,5S,6S)-spiro[4.4]nonane-1,6-diamine)platinum(IV)] | 91% | 97% | 53% | 75% | 88% | 98% | 102% | 101% |  |  |  |  |  |  |  |  |  |  |  |  | Inhibition rate of cell proliferation after 3 days from medicine addition ([1]; HL60, 20 μg/ml): 99%; Inhibition rate of cell proliferation after 3 days from medicine addition ([3]; Jurkat E6.1, 5 μg/ml): 92%; Inhibition rate of cell proliferation after 3 days from medicine addition ([3]; Jurkat E6.1, 10 μg/ml): 97%; Inhibition rate of cell proliferation after 3 days from medicine addition ([3]; Jurkat E6.1, 20 μg/ml): 100%
NC1CCCC12CCCC2N.O=C1CC(=O)[O][Pt]([Cl])([Cl])[O]1 [Compound 2, Dichloro complexes (G) of the malonato((R,R,R)-spiro[4,4]nonane-1,6-diamine)platinum(IV)] |  |  | 78% | 90% | 82% | 100% | 100% | 100% | 52% | 77% | 87% |  |  |  |  |  |  |  |  |  | Inhibition rate of cell proliferation after 3 days from medicine addition ([6]; DU145, 5 μg/ml): 51%; Inhibition rate of cell proliferation after 3 days from medicine addition ([6]; DU145, 10 μg/ml): 76%; Inhibition rate of cell proliferation after 3 days from medicine addition ([6]; DU145, 20 μg/ml): 84%
NC1CCCC12CCCC2N.[Cl][Pt]([Cl])([Cl])[Cl] [Compound 5, Tetrachloro((S,S,S)-spiro[4.4]nonane-1,6-diamine)platinum(IV)] |  |  |  |  |  |  |  |  | 79% | 86% | 80% | 83% | 95% | 98% | 65% | 84% | 91% | 90% | 93% | 87% | 
NC1CCCC12CCCC2N.[Cl][Pt]([Cl])([Cl])[Cl] [Compound 6, tetrachloro((R,R,R)-spiro[4.4]nonane-1,6-diamine)platinum(IV)] |  |  |  |  |  |  |  |  | 78% | 81% | 81% | 89% | 96% | 98% | 89% | 96% | 98% | 88% | 80% | 76% | 
O=C1[O][Pt]2([NH][C@@H]3CCCC[C@H]3[NH]2)[O]C1=O [Oxaliplatin, oxaliplatin, reference compound] | 73% | 86% | 58% | 75% | 87% | 67% | 90% | 99% | 38% | 43% | 48% | 50% | 59% | 74% | 38% | 40% | 49% | 73% | 82% | 87% | Inhibition rate of cell proliferation after 3 days from medicine addition ([1]; HL60, 20 μg/ml): 93%; Inhibition rate of cell proliferation after 3 days from medicine addition ([6]; DU145, 5 μg/ml): 46%; Inhibition rate of cell proliferation after 3 days from medicine addition ([6]; DU145, 10 μg/ml): 71%; Inhibition rate of cell proliferation after 3 days from medicine addition ([6]; DU145, 20 μg/ml): 81%; Inhibition rate of cell proliferation after 3 days from medicine addition ([3]; Jurkat E6.1, 5 μg/ml): 90%; Inhibition rate of cell proliferation after 3 days from medicine addition ([3]; Jurkat E6.1, 10 μg/ml): 94%; Inhibition rate of cell proliferation after 3 days from medicine addition ([3]; Jurkat E6.1, 20 μg/ml): 97%
